Where two headings read alike, the source gives them in different places.
Tests used:
Type in all cases: cell-based
[1] = test system: T47D (PI3Kα H1047R mutant) cells; assay: CellTiter-Glo 2.0 luminescent cell viability assay, 72 hours, T47D cells; conditions: T47D (PI3Kα H1047R mutant) cells, CellTiter-Glo, approximately 72 hours, read-out: T47D (H1047R mutant) Viability IC50
Summary of the method: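 Viability was measured by CellTiter-Glo 2.0 luminescence after approximately 72 h of compound exposure at 37° C. Plating was 1000 cells per well the day before dosing, with ten 1:4 dilutions from a 10 µM top concentration. Values as percent of vehicle were fitted by variable-slope log(inhibitor) regression to give IC50.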

[2] = test system: T47D (PI3Kα H1047R mutant) cells; assay: Inhibition of pAKT formation, alphaLISA SureFire Ultra AKT 1/2/3 (pS473), T47D cells; conditions: Homo sapiens, T47D, T47D (PI3Kα H1047R mutant) cells; inhibition of pAKT (pS473) formation; approximately one hour or 24 hours treatment; read-out: T47D pAKT (H1047R mutant) IC50
Method: The ability of a compound of Formula (I) to inhibit the formation of pAKT was measured using alphaLISA Surefire Ultra AKT 1/2/3 (pS473) Assay Kit (#ALSU-PAKT-B50K) was obtained from Perkin Elmer (Waltham, MA).
To prepare assay plates for pAKT alphaLISA assays, cells were trypsinized, resuspended in fresh media, and viable cells were counted utilizing trypan blue exclusion. Prior to seeding, cells were washed with PBS and resuspended in HBSS (Gibco, #14025092). T47D (12,000/w), SKBR3(12,000/w), or MKN1(24,000/w) cells were seeded at 12 μl per well in a solid white flat bottom 384 cell culture plate (Perkin Elmer #6007680).
Immediately after seeding, cells were dosed using an Echo Liquid Handler (Beckman Coulter) with compounds at a […] starting concentration and serially diluted (1:4) for a total of 10 concentrations. […] Cells were incubated with the compounds (solubilized in DMSO) for approximately one hour or 24 hours at 37° C. After one hour (or 24 hours) of treatment, cells were lysed with 3 μl of the 5× lysis buffer (provided and incubated at room temperature for 15 min on a microtiter plate shaker). Once cells were sufficiently lysed, 7.5 μl of the acceptor bead mix (made using the manufacturers recommended dilutions) was added to each well and left on the microtiter plate shaker for 1 min prior to incubating plates at room temperature for one hour, in the absence of light. After one hour of incubation with the acceptor bead mix, 7.5 μl of the donor bead mix (made using the manufacturers recommended dilutions) was added to each well and left on the microtiter plate shaker for 1 min prior to incubating plates at room temperature overnight in the absence of light. Plates were then imaged the following day using a CLARIOstar microplate reader (BMG Labtech, Germany).
Percent of control values were calculated by subtracting the average signal from the positive control (alpelisib) treated wells from all treated wells (including DMSO control wells) and then divided by the average signal from the vehicle DMSO treated control wells. Percent of vehicle control values were plotted as log (inhibitor) vs. response-Variable slope (four parameters) for curve fitting and IC50 values were determined using XLfit.
Key: N.D. =not determined
Inhibition of pAKT in T47D (PI3Kα H1047R mutant) cells by Exemplary Compounds of Formula (I)

[3] = test system: SKBR3 (PI3Kα wild type) cells; assay: CellTiter-Glo 2.0 luminescent cell viability assay, 72 hours, SKBR3 cells; conditions: SKBR3 (PI3Kα wild type) cells, CellTiter-Glo, approximately 72 hours, read-out: SKBR3 (WT) Viability IC50
Summary of the method: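 Viability measured via CTG luminescence following roughly 72 hours of compound exposure at 37° C. Dosing used a 10 um starting concentration diluted 1:4 over 10 points; percent-of-vehicle data fitted with a variable-slope four-parameter model for IC50.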

Structure (SMILES)	IC50 ([1]; Homo sapiens, T47D, 72 h)	IC50 [2]	IC50 ([3]; Homo sapiens, SK-BR-3, 72 h)	IC50 [1]	IC50 [3]
Cc1cc([C@@H](C)Nc2ccccc2C(=O)O)c2nc(N3CCN(c4cccnc4C#N)CC3)c(C)c(=O)n2c1 [Example 10-131, (R)-2-((1-(2-(4-(2-cyanopyridin-3-yl)piperazin-1-yl)-3,7-dimethyl-4-oxo-4H-pyrido[1,2-a]pyrimidin-9-yl)ethyl)amino)benzoic acid]	48.8 nM	1.86 nM	> 10000 nM		
Cc1cc([C@@H](C)Nc2ccccc2C(=O)O)c2nc(N3CCN(c4ccc(C#N)cc4)CC3C)c(C)c(=O)n2c1 (stereo partly drawn) [Example 10-20, 2-(((1R)-1-(2-(4-(4-cyanophenyl)-2-methylpiperazin-1-yl)-3,7-dimethyl-4-oxo-4H-pyrido[1,2-a]pyrimidin-9-yl)ethyl)amino)benzoic acid]		1.6 nM		42.7 nM	7450 nM
Cc1cc([C@@H](C)Nc2ccccc2C(=O)O)c2nc(N3CCN(c4nccs4)CC3)c(C)c(=O)n2c1 [Example 10-33, (R)-2-((1-(3,7-dimethyl-4-oxo-2-(4-(thiazol-2-yl)piperazin-1-yl)-4H-pyrido[1,2-a]pyrimidin-9-yl)ethyl)amino)benzoic acid]	56.5 nM	2.19 nM	> 10000 nM		
Cc1cc([C@@H](C)Nc2ccccc2C(=O)O)c2nc(N3CC(C)C(F)(F)C3)c(C#N)c(=O)n2c1 (stereo partly drawn) [Example 10-44, 2-(((1R)-1-(3-cyano-2-(3,3-difluoro-4-methylpyrrolidin-1-yl)-7-methyl-4-oxo-4H-pyrido[1,2-a]pyrimidin-9-yl)ethyl)amino)benzoic acid]	62.5 nM	1.47 nM	5030 nM		
Cc1cc([C@@H](C)Nc2ccccc2C(=O)O)c2nc(N3CCN(c4ccc(C#N)cc4C)CC3)c(C#N)c(=O)n2c1 [Example 10-101, (R)-2-((1-(3-cyano-2-(4-(4-cyano-2-methylphenyl)piperazin-1-yl)-7-methyl-4-oxo-4H-pyrido[1,2-a]pyrimidin-9-yl)ethyl)amino)benzoic acid]	86.8 nM	5.78 nM	> 10000 nM		
Cc1cc([C@@H](C)Nc2ccccc2C(=O)O)c2nc(N3CCN(c4ccc(F)cc4F)CC3)c(C)c(=O)n2c1 [Example 10-93, (R)-2-((1-(2-(4-(2,4-difluorophenyl)piperazin-1-yl)-3,7-dimethyl-4-oxo-4H-pyrido[1,2-a]pyrimidin-9-yl)ethyl)amino)benzoic acid]	83.2 nM	4.3 nM	> 10000 nM		
Cc1cc([C@@H](C)Nc2ccc(Cl)nc2C(=O)O)c2nc(N3Cc4ccccc4C3)c(C)c(=O)n2c1 [Example 10-30, (R)-6-chloro-3-((1-(2-(isoindolin-2-yl)-3,7-dimethyl-4-oxo-4H-pyrido[1,2-a]pyrimidin-9-yl)ethyl)amino)picolinic acid]		3.62 nM		55 nM	> 10000 nM
Cc1cc([C@@H](C)Nc2ccccc2C(=O)O)c2nc(N3CCN(c4ccc(C#N)cc4F)CC3)c(C#N)c(=O)n2c1 [Example 10-94, (R)-2-((1-(3-cyano-2-(4-(4-cyano-2-fluorophenyl)piperazin-1-yl)-7-methyl-4-oxo-4H-pyrido[1,2-a]pyrimidin-9-yl)ethyl)amino)benzoic acid]	83.6 nM	2.02 nM	> 10000 nM		
Cc1cc([C@@H](C)Nc2ccccc2C(=O)O)c2nc(N3Cc4ccc(F)cc4C3)c(C#N)c(=O)n2c1 [Example 10-92, (R)-2-((1-(3-cyano-2-(5-fluoroisoindolin-2-yl)-7-methyl-4-oxo-4H-pyrido[1,2-a]pyrimidin-9-yl)ethyl)amino)benzoic acid]	82.8 nM	1.71 nM	> 10000 nM		
Cc1cc([C@@H](C)Nc2ccccc2C(=O)O)c2nc(N3CCN(c4ccc(C#N)cc4C)CC3)c(C)c(=O)n2c1 [Example 10-77, (R)-2-((1-(2-(4-(4-cyano-2-methylphenyl)piperazin-1-yl)-3,7-dimethyl-4-oxo-4H-pyrido[1,2-a]pyrimidin-9-yl)ethyl)amino)benzoic acid]	107 nM	3.8 nM	> 10000 nM		

Continued by falling IC50 [2], values first:

IC50 ([1]; Homo sapiens, T47D, 72 h)	IC50 [2]	IC50 ([3]; Homo sapiens, SK-BR-3, 72 h)	IC50 [1]	IC50 [3]	Structure (SMILES)
56.7 nM	4.72 nM	7950 nM			Cc1cc([C@@H](C)Nc2ccccc2C(=O)O)c2nc(N3CCN(c4ccc(C#N)c5cc(C#N)ccc45)CC3)c(C)c(=O)n2c1 [Example 10-35, (R)-2-((1-(2-(4-(4,6-dicyanonaphthalen-1-yl)piperazin-1-yl)-3,7-dimethyl-4-oxo-4H-pyrido[1,2-a]pyrimidin-9-yl)ethyl)amino)benzoic acid]
73.3 nM	4.02 nM	> 10000 nM			Cc1cc([C@@H](C)Nc2ccccc2C(=O)O)c2nc(N3CCC(c4ccn(C)n4)CC3)c(C)c(=O)n2c1 [Example 10-58, (R)-2-((1-(3,7-dimethyl-2-(4-(1-methyl-1H-pyrazol-3-yl)piperidin-1-yl)-4-oxo-4H-pyrido[1,2-a]pyrimidin-9-yl)ethyl)amino)benzoic acid]
79 nM	2.98 nM	> 10000 nM			Cc1cc([C@@H](C)Nc2ccccc2C(=O)O)c2nc(N3CCN(C(=O)C4CCCC4)CC3)c(C)c(=O)n2c1 [Example 10-84, (R)-2-((1-(2-(4-(cyclopentanecarbonyl)piperazin-1-yl)-3,7-dimethyl-4-oxo-4H-pyrido[1,2-a]pyrimidin-9-yl)ethyl)amino)benzoic acid]
101 nM	2.16 nM	3720 nM			Cc1cc([C@@H](C)Nc2ccccc2C(=O)O)c2nc(N3CCN(C(=O)c4ccccc4)CC3)c(C)c(=O)n2c1 [Example 10-117, (R)-2-((1-(2-(4-benzoylpiperazin-1-yl)-3,7-dimethyl-4-oxo-4H-pyrido[1,2-a]pyrimidin-9-yl)ethyl)amino)benzoic acid]
85.8 nM	2.12 nM	> 10000 nM			Cc1cc([C@@H](C)Nc2ccccc2C(=O)O)c2nc(N3CCN(c4ccccc4)CC3)c(C#N)c(=O)n2c1 [Example 10-98, (R)-2-((1-(3-cyano-7-methyl-4-oxo-2-(4-phenylpiperazin-1-yl)-4H-pyrido[1,2-a]pyrimidin-9-yl)ethyl)amino)benzoic acid]
75 nM	1.98 nM	> 10000 nM			Cc1cc([C@@H](C)Nc2ccccc2C(=O)O)c2nc(N(C)CC3CC3)c(C#N)c(=O)n2c1 [Example 10-80, (R)-2-((1-(3-cyano-2-((cyclopropylmethyl)(methyl)amin0)-7-methyl-4-oxo-4H-pyrido[1,2-a]pyrimidin-9-yl)ethyl)amino)benzoic acid]
60 nM	1.91 nM	> 10000 nM			Cc1cc([C@@H](C)Nc2ccccc2C(=O)O)c2nc(N3CCN(c4ccc(F)cc4)CC3)c(C#N)c(=O)n2c1 [Example 10-40, (R)-2-((1-(3-cyano-2-(4-(4-fluorophenyl)piperazin-1-yl)-7-methyl-4-oxo-4H-pyrido[1,2-a]pyrimidin-9-yl)ethyl)amino)benzoic acid]
56.6 nM	1.38 nM	> 10000 nM			Cc1cc([C@@H](C)Nc2ccccc2C(=O)O)c2nc(N3CCN(c4ccccn4)CC3)c(C)c(=O)n2c1 [Example 10-34, (R)-2-((1-(3,7-dimethyl-4-oxo-2-(4-(pyridin-2-yl)piperazin-1-yl)-4H-pyrido[1,2-a]pyrimidin-9-yl)ethyl)amino)benzoic acid]
	0.54 nM		53.9 nM	> 10000 nM	Cc1cc([C@@H](C)Nc2ccc(F)nc2C(=O)O)c2nc(N3Cc4ccccc4C3)c(C)c(=O)n2c1 [Example 10-29, (R)-6-fluoro-3-((1-(2-(isoindolin-2-yl)-3,7-dimethyl-4-oxo-4H-pyrido[1,2-a]pyrimidin-9-yl)ethyl)amino)picolinic acid]
